Where “and” joins values, the source holds several entries; their conditions need not be identical. Equal entries are not always repeated. Where two headings read alike, the source gives them in different places.
Assays:
[1] = molecular target: T1, His-tagged protein corresponding to amino acids 575-869 of human Tyk2 (Homo sapiens, UniProt P29597); experiment: Probe displacement assay (scintillation proximity, radiolabeled probe); format: binding; conditions: 2.5 nM Tyk2 (575-869), 40 nM [3H] probe, 30 minutes at room temperature
T1 construct: made in house
Protocol: The preparation of radiolabeled probe, (R)—N-(1-(3-(8-methyl-5-(methylamino)-8H-imidazo[4,5-d]thiazolo[5,4-b]pyridin-2-yl)phenyl)ethyl)-2-([^3H]methylsulfonyl)benzamide, was performed as described below: […]

[2] = test system: IFNα-stimulated Kit225 T cells with STAT-dependent luciferase reporter; experiment: Kit225 T cell assay, STAT-dependent luciferase reporter, IFNα stimulated; format: cell-based, human; conditions: 5-6 hours, read-out: IFNa Kit225 Reporter, LE (IC50)
In short: (§1)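 Kit225 T cells carrying a stably integrated STAT-dependent luciferase reporter, in RPMI with 10% heat-inactivated FBS, stimulated with 20 ng/mL human recombinant IL-23 or 200 U/mL human recombinant IFNα for 5-6 h. Luciferase expression read by Steady-Glo luminescence.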

[3] = test system: IL-23-stimulated Kit225 T cells with STAT-dependent luciferase reporter; experiment: Kit225 T cell assay, STAT-dependent luciferase reporter, IL-23 stimulated; format: cell-based, human; conditions: read-out: IL-23 Kit225 Reporter, LE (IC50)
In short: as §1

[4] = Homo sapiens, KIT225, 200 U/mL human recombinant IFNα
[5] = Homo sapiens, KIT225, 20 ng/mL human recombinant IL-23, 5-6 hours
[6] = 200 U/mL human recombinant IFNα
[7] = 20 ng/mL human recombinant IL-23, 5-6 hours

T1 sequence (P29597 with tags, fused parts or gaps): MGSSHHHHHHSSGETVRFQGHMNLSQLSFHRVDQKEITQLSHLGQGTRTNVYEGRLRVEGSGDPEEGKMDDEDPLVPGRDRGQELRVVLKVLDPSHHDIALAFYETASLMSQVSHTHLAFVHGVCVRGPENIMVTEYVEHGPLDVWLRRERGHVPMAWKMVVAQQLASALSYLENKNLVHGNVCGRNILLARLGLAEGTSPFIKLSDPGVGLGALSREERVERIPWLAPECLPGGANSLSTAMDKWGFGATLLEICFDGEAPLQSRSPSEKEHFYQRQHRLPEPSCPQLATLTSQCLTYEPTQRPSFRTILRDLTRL

Structure (SMILES)	EC50 [1]	IC50 [2, 4] [nM]	IC50 [3, 5] [nM]	IC50 [2, 6] [nM]	IC50 [3, 7] [nM]
CNc1cc(Nc2cccn(-c3nccs3)c2=O)nn2c(C(=O)NC3CC3)cnc12 [Example 35]	5 nM	50	20		
CNc1cc(Nc2cccn(-c3cc(C)n(C)n3)c2=O)nn2c(C(=O)NC3CCC3)cnc12 [Example 155]	7 nM	20	30		
CNc1cc(Nc2cccn(C)c2=O)nn2c(C(=O)NCC(C)(C)C)cnc12 [Example 207]	15 nM and 22 nM	180		260	
CNc1cc(Nc2cccn(-c3cnc(C)cn3)c2=O)nn2c(C(=O)NCC(C)(C)CO)cnc12 [Example 6, N-(3-Hydroxy-2,2-dimethylpropyl)-8-(methylamino)-6-((1-(5-methylpyrazin-2-yl)-2-oxo-1,2-dihydropyridin-3-yl)amino)imidazo[1,2-b]pyridazine-3-carboxamide]	15 nM	140	70		
CNc1cc(Nc2cccn(-c3ccc(C#N)cc3)c2=O)nn2c(C(=O)NCC(C)(C)CO)cnc12 [Example 25]	16 nM	100	200		
CNc1cc(Nc2cccn(-c3cccc(C#N)c3)c2=O)nn2c(C(=O)NC3CC3)cnc12 [Example 126]	8 nM	190	300		
CNc1cc(Nc2cccn(-c3ccccn3)c2=O)nn2c(C(=O)NCC(C)(C)CO)cnc12 [Example 197]	16 nM	60	60		
CC[C@@H](C)NC(=O)c1cnc2c(NC)cc(Nc3cccn(-c4ccn(C)n4)c3=O)nn12 [Example 79]	6 nM	30	140		
CNc1cc(Nc2ccnn(-c3ccccc3)c2=O)nn2c(C(=O)N[C@@H]3C[C@@H]3F)cnc12 [Example 180]	17 nM	20	50		
CNc1cc(Nc2cccn(-c3cccc(F)n3)c2=O)nn2c(C(=O)N[C@@H]3C[C@@H]3F)cnc12 [Example 145]	5 nM	10	30		
CNc1cc(Nc2cccn(-c3ccc(C(F)(F)F)cc3)c2=O)nn2c(C(=O)NCC(C)(C)CO)cnc12 [Example 136]	11 nM	80	170		
CNc1cc(Nc2cccn(-c3ccccn3)c2=O)nn2c(C(=O)NC3CC3)cnc12 [Example 32]	27 nM	80	220		
CNc1cc(Nc2cccn(-c3ccc(N4CCOCC4)cc3)c2=O)nn2c(C(=O)NC3(C#N)CC3)cnc12 [Example 140]	14 nM	150	190		
CNc1cc(Nc2cccn(-c3cccnn3)c2=O)nn2c(C(=O)NC(C)C)cnc12 [Example 106]	13 nM	160	180		
CNc1cc(Nc2cccn(-c3cnccn3)c2=O)nn2c(C(=O)NCC(C)(C)CO)cnc12 [Example 109]	4 nM				
CNc1cc(Nc2cc(F)cn(-c3ccc(C)nn3)c2=O)nn2c(C(=O)NC3CCC3)cnc12 [Example 93]	12 nM	30	90		
CNc1cc(Nc2cccn(C)c2=O)nn2c(C(=O)NCC3CCC3)cnc12 [Example 214]	73 nM	810	360		
CCOc1ccc(-n2cccc(Nc3cc(NC)c4ncc(C(=O)N[C@@H]5C[C@@H]5F)n4n3)c2=O)nn1 [compound 260]		10	10		
CNc1cc(Nc2cccn(C3CCC(N4CCOCC4)CC3)c2=O)nn2c(C(=O)NC3CCC3)cnc12 (centres unmarked) [Example 225]				30	100
CNc1cc(Nc2cccn(-c3ncc(F)cn3)c2=O)nn2c(C(=O)NC3CCCC3)cnc12 [Example 172]				180	260
CNc1cc(Nc2cccn(C)c2=O)nn2c(C(=O)NCC(C)(C)CO)cnc12 [Example 117]				150	240
CNc1cc(Nc2cccn(-c3cccc(F)n3)c2=O)nn2c(C(=O)NCc3nccs3)cnc12 [Example 192]				180	230

Structure (SMILES)	EC50 [1]	IC50 [2, 4] [nM]	IC50 [3, 5] [nM]	IC50 [2, 6] [nM]	IC50 [3, 7] [nM]
CCCc1ccc(-n2cccc(Nc3cc(NC)c4ncc(C(=O)N[C@@H]5C[C@@H]5F)n4n3)c2=O)nn1 [Example 100]				30	40
CNc1cc(Nc2cccn(C3CCN(C(=O)C4CC4(F)F)CC3)c2=O)nn2c(C(=O)NC3CC3)cnc12 (centres unmarked) [Example 248]		230	280		
CNc1cc(Nc2cccn(-c3cccc(C(C)(C)O)n3)c2=O)nn2c(C(=O)NC3CCC3)cnc12 [Example 77]				30	20
CNc1cc(Nc2cccn(-c3ccc(C)nn3)c2=O)nn2c(C(=O)NC3CCC3)cnc12 [Example 64]				30	40
CNc1cc(Nc2cccn(C)c2=O)nn2c(C(=O)NC3CCC3)cnc12 [Example 68]				10	30
CNc1cc(Nc2cc(F)cn(CC3CC3)c2=O)nn2c(C(=O)NC3CC3)cnc12 [Example 15]				270	190
CNc1cc(Nc2cccn(-c3ccccc3)c2=O)nn2c(C(=O)N[C@@H]3CCOC3)cnc12 [Example 7, (R)-8-(Methylamino)-6-((2-oxo-1-phenyl-1,2-dihydropyridin-3-yl)amino)-N-(tetrahydrofuran-3-yl)imidazo[1,2-b]pyridazine-3-carboxamide]		300	270		
CNc1cc(Nc2cccn(-c3ccccc3)c2=O)nn2c(C(=O)NC(CO)CCl)cnc12 (centres unmarked) [Example 4, N-(1-Chloro-3-hydroxypropan-2-yl)-8-(methylamino)-6-(2-oxo-1-phenyl-1,2-dihydropyridin-3-ylamino)imidazo[1,2-b]pyridazine-3-carboxamide]		320	520		
CNc1cc(Nc2cccn(C3CCN(C(C)=O)CC3)c2=O)nn2c(C(=O)NC3C[C@@H]3F)cnc12 (some centres unmarked) [Example 251]		400	350		
CNc1cc(Nc2cccn(-c3ccc(C(C)O)cc3)c2=O)nn2c(C(=O)NC3CC3)cnc12 (centres unmarked) [Example 135]				240	280
CNc1cc(Nc2cccn(-c3ccc(C(C)O)cn3)c2=O)nn2c(C(=O)NC3CC3)cnc12 (centres unmarked) [compound 254]		260	230		
CNc1cc(Nc2cccn(-c3ncccc3F)c2=O)nn2c(C(=O)NC3CC3)cnc12 [Example 41]				60	80
CCN(C)C(=O)c1ccc(-n2cccc(Nc3cc(NC)c4ncc(C(=O)N[C@@H]5C[C@@H]5F)n4n3)c2=O)nc1 [compound 263]		50	160		
CNc1cc(Nc2cccn(-c3ccccn3)c2=O)nn2c(C(=O)NC3CCC3)cnc12 [Example 34]				50	60
CCNC(=O)c1cnc2c(NC)cc(Nc3cccn(-c4cccc(F)n4)c3=O)nn12 [Example 67]				140	70
CNc1cc(Nc2cccn(C(C)C)c2=O)nn2c(C(=O)NCC(C)(C)CO)cnc12 [Example 217]				100	90
CNc1cc(Nc2cccn(-c3cncc(C#N)n3)c2=O)nn2c(C(=O)NCC(C)(C)CO)cnc12 [compound 258]		590	1220		
CC(C)(CO)CNC(=O)c1cnc2c3c(c(Nc4cccn(-c5ccccn5)c4=O)nn12)OCCN3 [Example 242]		360	170		
CNc1cc(Nc2cccn(C3CCOC3)c2=O)nn2c(C(=O)NC3CC3)cnc12 (centres unmarked) [Example 220]				280	170
CNc1cc(Nc2cccn(-c3cc(C)n(C)n3)c2=O)nn2c(C(=O)N[C@@H]3C[C@@H]3F)cnc12 [Example 160]				30	50
CCC(C)NC(=O)c1cnc2c(NC)cc(Nc3cccn(-c4ccc(C)nn4)c3=O)nn12 (single isomer, unassigned) [Example 75]				130	190

Source: patent US10273237B2, “Imidazopyridazine compounds useful as modulators of IL-12, IL-23 and/or IFN-α responses” (BRISTOL-MYERS SQUIBB COMPANY, priority 2013, dated 2019)
